From ChEMBL document CHEMBL5137024, “Discovery of novel coumarin-indole derivatives as tubulin polymerization inhibitors with potent anti-gastric cancer activities” (Eur J Med Chem, 2022)
Active and inactive are the calls of the source. The calls are words filed in the database; no cut-off is given here.

Experiments:
[1] = tested on: HGC-27; assay: Induction of apoptosis in human HGC-27 cells assessed as cell rounding at 10 to 30 nM incubated for 48 hrs by bright field imaging analysis; type: functional, cell-based; conditions: dose 10-30 nM
[2] = Cytotoxicity against human GES1 cells assessed as reduction in cell viability incubated for 48 hrs by MTT assay; type: toxicity, cell-based
[3] = tested on: HepG2; assay: Antiproliferative activity against human HepG2 cells assessed as reduction in cell viability incubated for 48 hrs by MTT assay; type: functional, cell-based; conditions: HepG2, 48 h
[4] = tested on: MGC-803; assay: Downregulation of cyclin B1 expression in human MGC-803 cells at 5 to 15 nM incubated for 48 hrs; type: functional, cell-based; conditions: dose 5-15 nM
[5] = tested on: HGC-27; assay: Inhibition of p38 signalling pathway in human HGC-27 cells assessed as reduction in downstream substrate HSP-27 phosphorylation at 10 to 30 nM incubated for 48 hrs; type: cell-based; conditions: dose 10-30 nM
[6] = tested on: KYSE-450; assay: Antiproliferative activity against human KYSE-450 cells assessed as reduction in cell viability incubated for 48 hrs by MTT assay; type: functional, cell-based; conditions: KYSE-450, 48 h
[7] = tested on: SGC-7901; assay: Antiproliferative activity against human SGC-7901 cells assessed as reduction in cell viability incubated for 48 hrs by MTT assay; type: functional, cell-based; conditions: SGC-7901, 48 h
[8] = tested on: MGC-803; assay: Induction of apoptosis in human MGC-803 cells assessed as decrease in Bcl-2 level; type: functional, cell-based; conditions: dose 5-15 nM, DDE = dose-dependent effect
[9] = biological target: Tubulin (Homo sapiens) (UniProt P68371+Q9H4B7+P0DPH7+P68366+Q13509+Q71U36+P04350+Q3ZCM7+P07437+P68363+Q9BQE3+Q6PEY2+Q13885+Q9BVA1+Q9BUF5); assay: Disruption of microtubule network in human HGC-27 cells assessed as cytoskeleton disruption at 10 to 30 nM measured after 48 hrs by DAPI staining based fluorescence microscopic analysis; type: cell-based; conditions: dose 10-30 nM
[10] = tested on: MGC-803; assay: Downregulation of vimentin expression in human MGC-803 cells incubated for 48 hrs; type: functional, cell-based; conditions: dose 5-15 nM, DDE = dose-dependent effect
[11] = tested on: HGC-27; assay: Downregulation of vimentin expression in human HGC-27 cells incubated for 48 hrs; type: functional, cell-based; conditions: dose 10-30 nM, DDE = dose-dependent effect
[12] = tested on: EC9706; assay: Antiproliferative activity against human EC9706 cells assessed as reduction in cell viability incubated for 48 hrs by MTT assay; type: functional, cell-based; conditions: EC9706, 48 h
[13] = tested on: SH-SY5Y; assay: Antiproliferative activity against human SH-SY5Y cells assessed as reduction in cell viability incubated for 48 hrs by MTT assay; type: functional, cell-based
[14] = tested on: MDA-MB-231; assay: Antiproliferative activity against human MDA-MB-231 cells assessed as reduction in cell viability incubated for 48 hrs by MTT assay; type: functional, cell-based; conditions: MDA-MB-231, 48 h
[15] = tested on: MGC-803; assay: Inhibition of ERK signalling pathway in human MGC-803 cells assessed as reduction in downstream substrate p90RSK phosphorylation at 5 to 15 nM incubated for 48 hrs; type: cell-based; conditions: dose 5-15 nM
[16] = Induction of mitochondria mediated intrinsic apoptosis in human HGC-27 cells assessed as early apoptotic cells at 10 nM measured after 48 hrs by flow cytometry analysis (Rvb= 6.4%); type: functional
[17] = tested on: HGC-27; assay: Downregulation of phosphorylated Elk-1 expression in human HGC-27 cells incubated for 48 hrs; type: functional, cell-based; conditions: dose 10-30 nM, DDE = dose-dependent effect
[18] = tested on: HGC-27; assay: Downregulation of c-Myc expression in human HGC-27 cells incubated for 48 hrs; type: functional, cell-based; conditions: dose 10-30 nM, DDE = dose-dependent effect
[19] = tested on: Mus musculus; assay: Downregulation of p38 phosphorylation in tumor tissue of BALB/c nude mouse xenografted with human MGC-803 cells at 15 to 30 mg/kg, ip administered once daily for 21 days by Western blotting analysis; type: functional, organism-based; conditions: dose 15-30 mg/kg, time 21.0 day
[20] = Induction of mitochondria mediated intrinsic apoptosis in human MGC-803 cells assessed as late apoptotic cells at 15 nM measured after 48 hrs by flow cytometry analysis (Rvb= 98.2%); type: functional
[21] = tested on: MGC-803; assay: Downregulation of MMP-9 expression in human MGC-803 cells incubated for 48 hrs; type: functional, cell-based; conditions: dose 5-15 nM, DDE = dose-dependent effect
[22] = Induction of mitochondria mediated intrinsic apoptosis in human HGC-27 cells assessed as late apoptotic cells at 30 nM measured after 48 hrs by flow cytometry analysis (reference value: 93.6%); type: functional
[23] = Toxicity in BALB/c nude mouse xenografted with human MGC-803 cells assessed as effect on body weight at 15 to 30 mg/kg, ip administered once daily for 21 days; type: organism-based; conditions: in vivo, 504 h, dose 15-30 mg/kg, time 21 day
[24] = Induction of mitochondria mediated intrinsic apoptosis in human HGC-27 cells assessed as early apoptotic cells at 30 nM measured after 48 hrs by flow cytometry analysis (Rvb= 6.4%); type: functional
[25] = tested on: HGC-27; assay: Induction of apoptosis in human HGC-27 cells assessed as decrease in Bcl-2 level; type: functional, cell-based; conditions: dose 10-30 nM, DDE = dose-dependent effect
[26] = tested on: HGC-27; assay: Downregulation of Wee1 expression in human HGC-27 cells at 10 to 30 nM incubated for 48 hrs; type: functional, cell-based; conditions: dose 10-30 nM
[27] = tested on: MGC-803; assay: Induction of cell cycle arrest in human MGC-803 cells assessed as accumulation of cells at G2/M phase at 15 nM incubated for 48 hrs by propidium iodide staining based flow cytometry analysis (reference value: 24%); type: functional
[28] = tested on: MGC-803; assay: Antiproliferative activity against human MGC-803 cells assessed as reduction in cell viability incubated for 48 hrs by MTT assay; type: functional, cell-based
[29] = tested on: CWR22R; assay: Antiproliferative activity against human 22Rv1 cells assessed as reduction in cell viability incubated for 48 hrs by MTT assay; type: functional, cell-based; conditions: 22Rv1, 48 h
[30] = tested on: MGC-803; assay: Inhibition of ERK signalling pathway in human MGC-803 cells assessed as reduction in downstream substrate MSK1 phosphorylation at 5 to 15 nM incubated for 48 hrs; type: cell-based; conditions: dose 5-15 nM
[31] = Toxicity in BALB/c nude mouse xenografted with human MGC-803 cells assessed as pathological changes in liver at 15 to 30 mg/kg, ip administered once daily for 21 days by Hematoxyin-eosin staining based analysis; type: organism-based; conditions: in vivo, 504 h, dose 15-30 mg/kg, time 21 day
[32] = Induction of mitochondria mediated intrinsic apoptosis in human MGC-803 cells assessed as late apoptotic cells at 10 nM measured after 48 hrs by flow cytometry analysis (Rvb= 98.2%); type: functional
[33] = tested on: HGC-27; assay: Inhibition of colony formation in human HGC-27 cells incubated for 7 days by crystal violet staining based analysis; type: functional, cell-based; conditions: dose 3-15 nM, time 7.0 day, DDE = dose-dependent effect
[34] = Toxicity in BALB/c nude mouse xenografted with human MGC-803 cells assessed as pathological changes in heart at 15 to 30 mg/kg, ip administered once daily for 21 days by Hematoxyin-eosin staining based analysis; type: organism-based; conditions: in vivo, 504 h, dose 15-30 mg/kg, time 21 day

SMILES: CN(c1ccc2c(ccn2C)c1)c1cc(=O)oc2ccccc12
- Activity [1]: Active
- IC50 at 48 h [2]: 3170 nM
- IC50 [3]: 45.5 nM
- Activity [4]: Active
- inhibition [5]: Active
- IC50 [6]: 21 nM
- IC50 [7]: 52.3 nM
- Activity [8]: Dde
- Activity [9]: Active
- Activity [10]: Dde
- Activity [11]: Dde
- IC50 [12]: 21.8 nM
- IC50 [13]: 19.4 nM
- IC50 [14]: 79.3 nM
- inhibition [15]: Active
- Activity [16]: 8.3%
- Activity [17]: Dde
- Activity [18]: Dde
- Activity [19]: Active
- Activity [20]: 75.2%
- Activity [21]: Dde
- Activity [22]: 74.4%
- Activity [23]: Non-Toxic
- Activity [24]: 25.5%
- Activity [25]: Dde
- Activity [26]: Active
- Activity [27]: 53%
- IC50 ([28]; Homo sapiens, MGC-803, 48 h): 11 nM
- IC50 ([28]; mgc-803): 11.5 nM
- IC50 [29]: 558 nM
- inhibition [30]: Active
- Activity [31]: Non-Toxic
- Activity [32]: 92.5%
- inhibition [33]: Dde
- Activity [34]: Non-Toxic
